Consider 13 compounds from US20260022142A1, “MACROCYCLIC IMMUNOMODULATORS” (Bristol-Myers Squibb Company, priority 2022, published 2026).

SMILES strings stand for the structures. Bridge positions count the residues as written; N and C are the ends. Square brackets hold non-standard residues; d marks the D form. Peptide text beside a SMILES is read from it. * marks the point of attachment. ξ: configuration not given here. Phe(3-CONH2) = NC(=O)c1cccc(C[C@H](N)C(=O)O)c1; Phe(4-COOH) = N[C@@H](Cc1ccc(C(=O)O)cc1)C(=O)O; Bip = N[C@@H](Cc1ccc(-c2ccccc2)cc1)C(=O)O; NH(CH2)14COOH = O=C(O)CCCCCCCCCCCCCCN*; Phe(3-Me) = Cc1cccc(C[C@H](N)C(=O)O)c1; Val(3-OH) = CC(C)(O)[C@H](N)C(=O)O; hArg = N=C(N)NCCCC[C@H](N)C(=O)O; Cha = N[C@@H](CC1CCCCC1)C(=O)O; Cit = NC(=O)NCCC[C@H](N)C(=O)O; Ile(3ξ) = CCC(C)[C@H](N)C(=O)O; Thr(3ξ) = CC(O)[C@H](N)C(=O)O; 12Ado = NCCCCCCCCCCCC(=O)O; Carboxymethyl = O=C(O)C*; Orn = NCCC[C@H](N)C(=O)O; Aun = NCCCCCCCCCCC(=O)O; Dab = NCC[C@H](N)C(=O)O; Dap = NC[C@H](N)C(=O)O; AEEA = NCCOCCOCC(=O)O

This test deals with T1, PD-1/PD-L1 interaction (PE-labeled human PD-L1-Ig binding to Jurkat cell line over-expressing human PD-1) (Homo sapiens, UniProt Q15116).
T1 construct: expressed in transfected cells; host or cells: Jurkat
T1 sequence (Q15116 25-288): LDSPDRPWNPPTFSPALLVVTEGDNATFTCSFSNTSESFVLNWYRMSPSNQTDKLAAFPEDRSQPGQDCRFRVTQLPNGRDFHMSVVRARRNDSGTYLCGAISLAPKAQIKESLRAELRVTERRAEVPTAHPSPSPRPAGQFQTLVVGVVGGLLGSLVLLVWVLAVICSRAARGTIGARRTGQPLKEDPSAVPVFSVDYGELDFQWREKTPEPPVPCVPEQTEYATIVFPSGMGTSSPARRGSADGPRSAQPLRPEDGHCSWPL
In words: Jurkat-PD-1 Cell Binding High-Content Screening Assay (CBA). Type of test: cell-based. As to conditions: Jurkat cell line over-expressing human PD-1; PE-labeled PD-L1-Ig 20 nM final; read-out: Jurkat hPD1-PDL1 IC50. The procedure, abridged:
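Jurkat cells stably over-expressing human PD-1 were seeded in DMEM with 10% fetal calf serum and pre-incubated with compound for 2 h at 37° C. PE-labeled human PD-L1-Ig was then added at 20 nM final for 1 hour, after which cells were fixed with paraformaldehyde, Hoechst-stained and imaged by high-content microscopy.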
A word on the IC50: it is the concentration that gives 50% inhibition. On to `CCC(C)[C@@H]1NC(=O)[C@H](CC2CCCCC2)NC(=O)[C@H](CCN)NC(=O)[C@@H](CC(C)C)NC(=O)[C@H](CCCN)NC(=O)[C@H](C(C)CC)NC(=O)[C@H](Cc2ccc(-c3ccccc3)cc2)NC(=O)[C@H](CC(C)C)NC(=O)[C@H](Cc2c[nH]c3ccccc23)NC(=O)[C@H](CC(=O)O)NC(=O)[C@H](Cc2ccc(OCC(=O)O)cc2)NC(=O)[C@H](Cc2cccc(C(N)=O)c2)NC(=O)CSC[C@@H](C(=O)N[C@@H](CC(N)=O)C(=O)NCCOCCOCC(=O)NCCCCCCCCCCC(=O)O)NC(=O)[C@H](CO)NC1=O` (stereo partly drawn) [Compound 3116] ({CH2CO}-[Phe(3-CONH2)]Y(Carboxymethyl)DWL[Bip][Ile(3ξ)][Orn][dL][Dab][Cha][Ile(3ξ)]SCN[AEEA][Aun]-OH; thioether N-14), for which the IC50 stood at 43.4 nM. Next, `Cc1cccc(C[C@@H]2NC(=O)[C@H](CC(=O)O)NC(=O)[C@H](Cc3ccc(O)cc3)NC(=O)[C@H](CC(N)=O)NC(=O)CSC[C@@H](C(=O)N[C@@H](CCN)C(=O)NCCCCCCCCCCC(=O)O)NC(=O)[C@@H](CCC(N)=O)NC(=O)[C@H](C(C)C)NC(=O)[C@H](CC(C)C)NC(=O)[C@H](CCN)NC(=O)[C@@H](CC(C)C)NC(=O)[C@H](CCCN)NC(=O)[C@H](CCCNC(N)=O)NC(=O)[C@H](Cc3ccc(-c4ccccc4)cc3)NC(=O)[C@H](C(C)C)NC2=O)c1` [Compound 2791] ({CH2CO}-NYD[Phe(3-Me)]V[Bip][Cit][Orn][dL][Dab]LV[dQ]C[Dab][Aun]-OH; thioether N-14): 36.7 nM; `Cc1cccc(C[C@@H]2NC(=O)[C@H](CC(=O)O)NC(=O)[C@H](Cc3ccc(OCC(=O)O)cc3)NC(=O)[C@H](CCN)NC(=O)CSC[C@@H](C(=O)N[C@@H](CCN)C(=O)NCCCCCCCCCCC(=O)O)NC(=O)[C@H](CO)NC(=O)[C@H](Cc3cnc[nH]3)NC(=O)[C@H](CC3CCCCC3)NC(=O)[C@H](CCN)NC(=O)[C@@H](CC(C)C)NC(=O)[C@H](CCCN)NC(=O)[C@H](Cc3ccc(OCC(=O)O)cc3)NC(=O)[C@H](Cc3ccc(-c4ccccc4)cc3)NC(=O)[C@H](Cc3ccc(OCC(=O)O)cc3)NC2=O)c1` [Compound 3632] ({CH2CO}-[Dab]Y(Carboxymethyl)D[Phe(3-Me)]Y(Carboxymethyl)[Bip]Y(Carboxymethyl)[Orn][dL][Dab][Cha]HSC[Dab][Aun]-OH; thioether N-14): 8.7 nM; `Cc1cccc(C[C@@H]2NC(=O)[C@H](CC(=O)O)NC(=O)[C@H](Cc3ccc(OCC(=O)O)cc3)NC(=O)[C@H](CCCNC(=N)N)NC(=O)CSC[C@@H](C(=O)N[C@H](CC(N)=O)C(=O)NCCCCCCCCCCC(=O)O)NC(=O)[C@H](CCC(N)=O)NC(=O)[C@H](C(C)O)NC(=O)[C@H](CC3CCCCC3)NC(=O)[C@H](CCN)NC(=O)[C@@H](CC(C)C)NC(=O)[C@H](CCCN)NC(=O)[C@H](Cc3ccc(OCC(=O)O)cc3)NC(=O)[C@H](Cc3ccc(-c4ccccc4)cc3)NC(=O)[C@H](Cc3ccc(OCC(=O)O)cc3)NC2=O)c1` (stereo partly drawn) [Compound 3529] ({CH2CO}-RY(Carboxymethyl)D[Phe(3-Me)]Y(Carboxymethyl)[Bip]Y(Carboxymethyl)[Orn][dL][Dab][Cha][Thr(3ξ)]QC[dN][Aun]-OH; thioether N-14): 78.1 nM.

On to `Cc1cccc(C[C@@H]2NC(=O)[C@H](CC(=O)O)NC(=O)[C@H](Cc3ccc(OCC(=O)O)cc3)NC(=O)[C@H](CN)NC(=O)CSC[C@@H](C(=O)N[C@@H](CCN)C(=O)NCCCCCCCCCCC(=O)O)NC(=O)[C@H](CCCN)NC(=O)[C@H](C(C)C)NC(=O)[C@H](CC3CCCCC3)NC(=O)[C@H](CCN)NC(=O)[C@@H](CC(C)C)NC(=O)[C@H](CCCN)NC(=O)[C@H](CCCNC(N)=O)NC(=O)[C@H](Cc3ccc(-c4ccccc4)cc3)NC(=O)[C@H](C(C)C)NC2=O)c1` [Compound 2845] ({CH2CO}-[Dap]Y(Carboxymethyl)D[Phe(3-Me)]V[Bip][Cit][Orn][dL][Dab][Cha]V[Orn]C[Dab][Aun]-OH; thioether N-14), for which the IC50 stood at 14.2 nM. Under `CC(C)C[C@H]1NC(=O)[C@H](CCCN)NC(=O)[C@H](C(C)C)NC(=O)[C@H](Cc2ccc(-c3ccccc3)cc2)NC(=O)[C@H](C(C)C)NC(=O)[C@H](Cc2c[nH]c3ccccc23)NC(=O)[C@H](CC(=O)O)NC(=O)[C@H](Cc2ccc(OCC(=O)O)cc2)NC(=O)[C@H](CN)NC(=O)CSC[C@@H](C(=O)N[C@@H](CCC(=O)O)C(=O)NCCCCCCCCCCC(=O)O)NC(=O)[C@H]([C@@H](C)O)NC(=O)[C@H](C(C)C)NC(=O)[C@H](CC2CCCCC2)NC(=O)[C@H](Cc2c[nH]cn2)NC1=O` [Compound 1079] ({CH2CO}-[Dap]Y(Carboxymethyl)DWV[Bip]V[Orn][dL]H[Cha]VTCE[Aun]-OH; thioether N-14) stands 55.6 nM; under `CC(C)C[C@H]1NC(=O)[C@H](CCCN)NC(=O)[C@H](C(C)C)NC(=O)[C@H](Cc2ccc(-c3ccccc3)cc2)NC(=O)[C@H](C(C)C)NC(=O)[C@H](Cc2c[nH]c3ccccc23)NC(=O)[C@H](CC(=O)O)NC(=O)[C@H](Cc2ccc(OCC(=O)O)cc2)NC(=O)[C@H](CCCCNC(=N)N)NC(=O)CSC[C@@H](C(=O)NCC(=O)N[C@@H](CCCN)C(=O)NCCCCCCCCCCCC(=O)O)NC(=O)[C@H](CN)NC(=O)[C@H](C(C)C)NC(=O)[C@H](CC2CCCCC2)NC(=O)[C@H](CC(N)=O)NC1=O` [Compound 3176] ({CH2CO}-[hArg]Y(Carboxymethyl)DWV[Bip]V[Orn][dL]N[Cha]V[Dap]CG[Orn][12Ado]-OH; thioether N-14), 33.4 nM.

Turning to `Cc1cccc(C[C@@H]2NC(=O)[C@H](CC(=O)O)NC(=O)[C@H](Cc3ccc(OCC(=O)O)cc3)NC(=O)[C@H](CCCCNC(=N)N)NC(=O)CSC[C@@H](C(=O)N[C@@H](CCCN)C(=O)N[C@@H](CO)C(=O)NCCCCCCCCCCCC(=O)O)NC(=O)[C@H](CO)NC(=O)[C@H](C(C)C)NC(=O)[C@H](CC3CCCCC3)NC(=O)[C@H](CCN)NC(=O)[C@@H](CC(C)C)NC(=O)[C@H](CCCN)NC(=O)[C@H](CCCNC(=N)N)NC(=O)[C@H](Cc3ccc(-c4ccccc4)cc3)NC(=O)[C@H](C(C)C)NC2=O)c1` [Compound 3576] ({CH2CO}-[hArg]Y(Carboxymethyl)D[Phe(3-Me)]V[Bip]R[Orn][dL][Dab][Cha]VSC[Orn]S[12Ado]-OH; thioether N-14), the IC50 was 17.3 nM. Under `Cc1cccc(C[C@@H]2NC(=O)[C@H](CC(=O)O)NC(=O)[C@H](Cc3ccc(OCC(=O)O)cc3)NC(=O)[C@H](CCN)NC(=O)CSC[C@@H](C(=O)N[C@@H](CCN)C(=O)NCCOCCOCC(=O)N[C@@H](CCC(=O)O)C(=O)NCCCCCCCCCCCCCCC(=O)O)NC(=O)[C@H](CO)NC(=O)[C@H](C(C)(C)O)NC(=O)[C@H](CC3CCCCC3)NC(=O)[C@H](CCN)NC(=O)[C@@H](CC(C)C)NC(=O)[C@H](CCCN)NC(=O)[C@H](Cc3ccc(OCC(=O)O)cc3)NC(=O)[C@H](Cc3ccc(-c4ccccc4)cc3)NC(=O)[C@H](Cc3ccc(OCC(=O)O)cc3)NC2=O)c1` [Compound 3814] ({CH2CO}-[Dab]Y(Carboxymethyl)D[Phe(3-Me)]Y(Carboxymethyl)[Bip]Y(Carboxymethyl)[Orn][dL][Dab][Cha][Val(3-OH)]SC[Dab][AEEA]E-{NH(CH2)14COOH}; thioether N-14) stands 53.4 nM. Turning to `CCC(C)[C@@H]1NC(=O)[C@H](Cc2ccc(-c3ccccc3)cc2)NC(=O)[C@H](C(C)C)NC(=O)[C@H](Cc2cccc(C)c2)NC(=O)[C@H](CC(=O)O)NC(=O)[C@H](Cc2ccc(OCC(=O)O)cc2)NC(=O)[C@H](C(C)O)NC(=O)CSC[C@@H](C(=O)N[C@H](CCN)C(=O)NCCCCCCCCCCC(=O)O)NC(=O)[C@H](C(C)O)NC(=O)[C@H](C(C)C)NC(=O)[C@H](CC2CCCCC2)NC(=O)[C@H](CCN)NC(=O)[C@@H](CC(C)C)NC(=O)[C@H](CCCN)NC1=O` (stereo partly shown) [Compound 3091], the IC50 is 26.9 nM. Under `Cc1cccc(C[C@@H]2NC(=O)[C@H](CC(=O)O)NC(=O)[C@H](Cc3ccc(OCC(=O)O)cc3)NC(=O)[C@H](CN)NC(=O)CSC[C@@H](C(=O)N[C@@H](C)C(=O)N[C@@H](CO)C(=O)NCCCCCCCCCCC(=O)O)NC(=O)[C@H]([C@@H](C)O)NC(=O)[C@H](C(C)C)NC(=O)[C@H](CC3CCCCC3)NC(=O)[C@H](Cc3cnc[nH]3)NC(=O)[C@@H](CC(C)C)NC(=O)[C@H](CCCN)NC(=O)[C@H](C(C)C)NC(=O)[C@H](Cc3ccc(-c4ccccc4)cc3)NC(=O)[C@H](C(C)C)NC2=O)c1` [Compound 1115] ({CH2CO}-[Dap]Y(Carboxymethyl)D[Phe(3-Me)]V[Bip]V[Orn][dL]H[Cha]VTCAS[Aun]-OH; thioether N-14) stands 26 nM.

On to `Cc1cccc(C[C@@H]2NC(=O)[C@H](CC(=O)O)NC(=O)[C@H](Cc3ccc(OCC(=O)O)cc3)NC(=O)[C@H](CCCNC(=N)N)NC(=O)CSC[C@@H](C(=O)N[C@@H](CCN)C(=O)NCCCCCCCCCCC(=O)O)NC(=O)[C@H]([C@@H](C)O)NC(=O)[C@H](C(C)C)NC(=O)[C@H](CC3CCCCC3)NC(=O)[C@H](CCN)NC(=O)[C@@H](CC(C)C)NC(=O)[C@H](CCCN)NC(=O)[C@H](CCCNC(N)=O)NC(=O)[C@H](Cc3ccc(-c4ccccc4)cc3)NC(=O)[C@H](Cc3ccc(O)cc3)NC2=O)c1` [Compound 2833] ({CH2CO}-RY(Carboxymethyl)D[Phe(3-Me)]Y[Bip][Cit][Orn][dL][Dab][Cha]VTC[Dab][Aun]-OH; thioether N-14), for which the concentration for half-maximal inhibition (IC50) was 5.2 nM. For the compound `CC(C)C[C@H]1NC(=O)[C@H](CCCN)NC(=O)[C@H](C(C)C)NC(=O)[C@H](Cc2ccc(-c3ccccc3)cc2)NC(=O)[C@H](C(C)C)NC(=O)[C@H](Cc2c[nH]c3ccccc23)NC(=O)[C@H](CC(=O)O)NC(=O)[C@H](Cc2ccc(C(=O)O)cc2)NC(=O)[C@H](CCCNC(=N)N)NC(=O)CSC[C@@H](C(=O)NCC(=O)NCCOCCOCC(=O)N[C@@H](CCCN)C(=O)NCCCCCCCCCCC(=O)O)NC(=O)[C@H](CO)NC(=O)[C@H](C(C)C)NC(=O)[C@H](CC2CCCCC2)NC(=O)[C@H](CCN)NC1=O` [Compound 3231] ({CH2CO}-R[Phe(4-COOH)]DWV[Bip]V[Orn][dL][Dab][Cha]VSCG[AEEA][Orn][Aun]-OH; thioether N-14), the 50% inhibitory concentration (IC50) was 7.7 nM.
